{"source": "patent US7160888B2", "about": "“[1,8]naphthyridin-2-ones and related compounds for the treatment of schizophrenia” (Warner Lambert Company LLC, priority 2003, dated 2007)"}
{"molecular_target": "D2 receptor (Homo sapiens, UniProt P14416)", "sequence (P14416 whole entry)": "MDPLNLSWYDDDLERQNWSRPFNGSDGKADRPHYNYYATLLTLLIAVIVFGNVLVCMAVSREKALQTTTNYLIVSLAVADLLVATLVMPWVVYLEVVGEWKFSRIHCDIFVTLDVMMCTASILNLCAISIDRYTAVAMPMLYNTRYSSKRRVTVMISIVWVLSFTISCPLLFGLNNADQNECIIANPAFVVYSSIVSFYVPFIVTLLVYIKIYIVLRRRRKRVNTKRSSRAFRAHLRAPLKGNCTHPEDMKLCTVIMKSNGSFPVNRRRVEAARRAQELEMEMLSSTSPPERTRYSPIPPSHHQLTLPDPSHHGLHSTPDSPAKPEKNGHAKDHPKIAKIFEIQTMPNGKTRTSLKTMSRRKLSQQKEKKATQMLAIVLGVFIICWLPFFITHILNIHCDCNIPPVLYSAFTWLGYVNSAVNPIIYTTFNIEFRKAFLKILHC", "test": "[3H]Thymidine uptake assay for D2 intrinsic activity", "assay_type": "cell-based", "details": "Table 1; test compound 1 μM; 1 μM Quinpirole = 100% intrinsic activity", "units": {"Emax at 1 µM": "%"}}
{"smiles": "CC1CC(=O)Nc2nc(OCCCCN3CCN(c4cccc(Cl)c4Cl)CC3)ccc21", "note": "(single isomer, unassigned) [Example D2a, 7-{4-[4-(2,3-Dichloro-phenyl)-piperazin-1-yl]-butoxy}-4-methyl-3,4-dihydro-1H-[1,8]naphthyridin-2-one]", "Emax at 1 µM": 20}
{"smiles": "CC1Cc2ccc(OCCCCN3CCN(c4cccc(Cl)c4Cl)CC3)nc2NC1=O", "note": "(single isomer, unassigned) [Example D6a, 7-{4-[4-(2,3-Dichloro-phenyl)-piperazin-1-yl]-butoxy}-3-methyl-3,4-dihydro-1H-[1,8]naphthyridin-2-one]", "Emax at 1 µM": 17}
{"smiles": "O=C1CCc2ccc(OCCCCN3CCN(c4ccc(F)c(Cl)c4Cl)CC3)nc2N1", "note": "[Example A8, 7-{4-[4-(2,3-Dichloro-4-fluoro-phenyl)-piperazin-1-yl]-butoxy}-3,4-dihydro-1H-[1,8]naphthyridin-2-one]", "Emax at 1 µM": 7}
{"smiles": "O=C1CCc2ccc(OCCCCN3CCN(c4ccc(F)cc4Cl)CC3)nc2N1", "note": "[Example A9, 7-{4-[4-(2-Chloro-4-fluoro-phenyl)-piperazin-1-yl]-butoxy}-3,4-dihydro-1H-[1,8]naphthyridin-2-one]", "Emax at 1 µM": 9}
{"smiles": "O=C1CCc2ccc(OCCCCN3CCN(c4ccccc4-c4ccccc4)CC3)nc2N1", "note": "[Example A11, 7-[4-(4-Biphenyl-2-yl-piperazin-1-yl)-butoxy]-3,4-dihydro-1H-[1,8]naphthyridin-2-one]", "Emax at 1 µM": 6}
{"molecular_target": "D2 receptor (Homo sapiens, UniProt P14416)", "test": "[3H]Thymidine uptake assay for D2 intrinsic activity", "assay_type": "cell-based", "details": "Table 2; test compound 1 μM; 1 μM Quinpirole = 100% intrinsic activity", "units": {"Emax at 1 µM": "%"}}
{"smiles": "O=C1CCc2ccc(OCCCCN3CCN(c4cccc5[nH]c(=O)oc45)CC3)nc2N1", "note": "[Example A1′, 7-{4-[4-(2-Oxo-2,3-dihydro-benzooxazol-7-yl)-piperazin-1-yl]-butoxy}-3,4-dihydro-1H-[1,8]naphthyridin-2-one]", "Emax at 1 µM": 73}
{"smiles": "O=C1CCc2ccc(OCCCCN3CCN(c4cccc5c4OCC5)CC3)nc2N1", "note": "[Example A2′, 7-{4-[4-(2,3-Dihydro-benzofuran-7-yl)-piperazin-1-yl]-butoxy}-3,4-dihydro-1H-[1,8]naphthyridin-2-one]", "Emax at 1 µM": 21}
{"smiles": "CC1(C)Cc2cccc(N3CCN(CCCCOc4ccc5c(n4)NC(=O)CC5)CC3)c2O1", "note": "[Example A3′, 7-{4-[4-(2,2-Dimethyl-2,3-dihydro-benzofuran-7-yl)-piperazin-1-yl]-butoxy}-3,4-dihydro-1H-[1,8]naphthyridin-2-one]", "Emax at 1 µM": 37}
{"smiles": "O=C1CCc2ccc(OCCCCN3CCN(c4cccc5c4OCCC5)CC3)nc2N1", "note": "[Example A4′, 7-[4-(4-Chroman-8-yl-piperazin-1-yl)-butoxy]-3,4-dihydro-1H-[1,8]naphthyridin-2-one]", "Emax at 1 µM": 18}
{"smiles": "CC1(C)C=Cc2cccc(N3CCN(CCCCOc4ccc5c(n4)NC(=O)CC5)CC3)c2O1", "note": "[Example A5′, 7-{4-[4-(2,2-Dimethyl-2H-chromen-8-yl)-piperazin-1-yl]-butoxy}-3,4-dihydro-1H-[1,8]naphthyridin-2-one]", "Emax at 1 µM": 31}
{"smiles": "CC1(C)CCc2cccc(N3CCN(CCCCOc4ccc5c(n4)NC(=O)CC5)CC3)c2O1", "note": "[Example A6′, 7-{4-[4-(2,2-Dimethyl-chroman-8-yl)-piperazin-1-yl]-butoxy}-3,4-dihydro-1H-[1,8]naphthyridin-2-one]", "Emax at 1 µM": 42}
{"smiles": "O=C1CCc2ccc(OCCCCN3CCN(c4cccc5c4OC4(C=C5)CCCC4)CC3)nc2N1", "note": "[Example A7′, 7-{4-[4-(Spiro[chromene-2,1′-cyclopentan]-8-yl)-piperazin-1-yl]-butoxy}-3,4-dihydro-1H-[1,8]naphthyridin-2-one]", "Emax at 1 µM": 34}
{"smiles": "O=C1CCc2ccc(OCCCCN3CCN(c4cccc5c4OC4(CCCC4)CC5)CC3)nc2N1", "note": "[Example A8′, 7-{4-[4-(3,4-Dihydrospiro[chromene-2,1′-cyclopentan]-8-yl)-piperazin-1-yl]-butoxy}-3,4-dihydro-1H-[1,8]naphthyridin-2-one]", "Emax at 1 µM": 30}
{"smiles": "CC1C=Cc2cccc(N3CCN(CCCCOc4ccc5c(n4)NC(=O)CC5)CC3)c2O1", "note": "(centres unmarked) [Example A9′, 7-{4-[4-(2-Methyl-2H-chromen-8-yl)-piperazin-1-yl]-butoxy}-3,4-dihydro-1H-[1,8]naphthyridin-2-one]", "Emax at 1 µM": 30}
